Measurements reported in patent US20080194482A1, “Selective Apac2 Receptor Peptide Agonists” (priority 2005, published 2008).
Square brackets hold non-standard residues; d marks the D form. Peptide text beside a SMILES is read from it. * marks the point of attachment. Orn = NCCC[C@H](N)C(=O)O; Hexanoyl = CCCCCC(=O)*; Aib = CC(C)(N)C(=O)O

Tests used:
[1] = target: T1, human VPAC2 (Homo sapiens, UniProt P41587); assay: Alpha screen cAMP assay, in vitro potency at human VPAC2 receptor; format: cell-based; details: cAMP generation; single result from two analyses in a single run, some values average of more than one experiment
T1 construct: expressed in transfected cells
T1 sequence (P41587 24-438): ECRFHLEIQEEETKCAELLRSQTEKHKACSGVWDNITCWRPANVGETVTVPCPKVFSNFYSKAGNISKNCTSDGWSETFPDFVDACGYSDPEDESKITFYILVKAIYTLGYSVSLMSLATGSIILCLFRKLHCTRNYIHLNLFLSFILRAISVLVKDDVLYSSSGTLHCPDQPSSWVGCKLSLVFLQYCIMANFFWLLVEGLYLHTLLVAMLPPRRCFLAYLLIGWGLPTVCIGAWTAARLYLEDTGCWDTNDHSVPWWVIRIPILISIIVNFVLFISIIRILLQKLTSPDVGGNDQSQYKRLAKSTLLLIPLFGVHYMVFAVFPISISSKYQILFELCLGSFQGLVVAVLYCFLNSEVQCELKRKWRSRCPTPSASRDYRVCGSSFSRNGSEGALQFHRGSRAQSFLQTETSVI
Method: Alpha screen: Cells are washed in the culture flask once with PBS. Then, the cells are rinsed with enzyme free dissociation buffer. The dissociated cells are removed. The cells are then spun down and washed in stimulation buffer. For each data point, 50,000 cells suspended in stimulation buffer are used. To this buffer, Alpha screen acceptor beads are added along with the stimuli. This mixture is incubated for 60 minutes. Lysis buffer and Alpha screen donor beads are added and are incubated for 60 to 120 minutes. The Alpha screen signal (indicative of intracellular cAMP levels) is read in a suitable instrument (e.g. AlphaQuest from Perkin-Elmer). Steps including Alpha screen donor and acceptor beads are performed in reduced light. The EC50 for cAMP generation is calculated from the raw signal or is based on absolute cAMP levels as determined by a standard curve performed on each plate.
Results for each agonist are, at minimum, from two analyses performed in a single run. For some agonists, the results are the mean of more than one run. The tested peptide concentrations are: 10000, 1000, 100, 10, 3, 1, 0.1, 0.01, 0.003, 0.001, 0.0001 and 0.00001 nM.

[2] = target: T2, human VPAC1 (Homo sapiens, UniProt P32241); assay: Filter binding assay, 125I-labeled VIP tracer, VPAC1 membranes; details: read-out: Human VPAC1 Receptor Binding (IC50; nM)
T2 construct: expressed in transfected cells
T2 sequence (P32241 31-457): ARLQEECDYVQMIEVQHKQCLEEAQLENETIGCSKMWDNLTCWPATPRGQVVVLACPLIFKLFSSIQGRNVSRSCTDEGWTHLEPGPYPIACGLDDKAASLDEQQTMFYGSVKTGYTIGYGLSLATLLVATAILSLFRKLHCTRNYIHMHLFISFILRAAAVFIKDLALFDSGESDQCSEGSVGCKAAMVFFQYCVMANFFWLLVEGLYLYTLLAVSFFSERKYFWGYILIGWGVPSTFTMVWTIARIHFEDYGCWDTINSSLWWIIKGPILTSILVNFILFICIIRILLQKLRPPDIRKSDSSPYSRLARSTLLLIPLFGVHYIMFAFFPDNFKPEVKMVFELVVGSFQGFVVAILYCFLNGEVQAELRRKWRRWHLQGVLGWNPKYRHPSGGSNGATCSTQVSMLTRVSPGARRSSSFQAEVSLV
Method: For this assay, the solutions and equipment include:
Presoak solution: 0.5% Polyethyleneamine in Aqua dest
Buffer for flushing filter plates: 25 mM HEPES pH 7.4
Blocking buffer: 25 mM HEPES pH 7.4; 0.2% protease free BSA
Assay buffer: 25 mM HEPES pH 7.4; 0.5% protease free BSA
Dilution and assay plate: PS-Microplate, U form
Filtration Plate: Multiscreen FB Opaque Plate; 1.0 μM Type B Glasfiber filter
In order to prepare the filter plates, the presoak solution is aspirated by vacuum filtration. The plates are flushed twice with 200 μL flush buffer. 200 μL blocking buffer is added to the filter plate. The filter plate is then incubated with 200 μL presoak solution for 1 hour at room temperature.
The assay plate is filled with 25 μL assay buffer, 25 μL membranes (2.5 μg) suspended in assay buffer, 25 μL compound (agonist) in assay buffer, and 25 μL tracer (about 40000 cpm) in assay buffer. The filled plate is incubated for 1 hour with shaking.
The transfer from assay plate to filter plate is conducted. The blocking buffer is aspirated by vacuum filtration and washed two times with flush buffer. 90 μL is transferred from the assay plate to the filter plate. The 90 μL transferred from assay plate is aspirated and washed three times with 200 μL flush buffer. The plastic support is removed. It is dried for 1 hour at 60° C. 30 μL Microscint is added. The count is performed.

[3] = target: T3, human PAC1 (Homo sapiens, UniProt P41586); assay: Filter binding assay, 125I-labeled PACAP-27 tracer, PAC1 membranes; details: read-out: Human PAC1 Receptor Binding (IC50; nM)
T3 construct: expressed in transfected cells
T3 sequence (P41586 21-468): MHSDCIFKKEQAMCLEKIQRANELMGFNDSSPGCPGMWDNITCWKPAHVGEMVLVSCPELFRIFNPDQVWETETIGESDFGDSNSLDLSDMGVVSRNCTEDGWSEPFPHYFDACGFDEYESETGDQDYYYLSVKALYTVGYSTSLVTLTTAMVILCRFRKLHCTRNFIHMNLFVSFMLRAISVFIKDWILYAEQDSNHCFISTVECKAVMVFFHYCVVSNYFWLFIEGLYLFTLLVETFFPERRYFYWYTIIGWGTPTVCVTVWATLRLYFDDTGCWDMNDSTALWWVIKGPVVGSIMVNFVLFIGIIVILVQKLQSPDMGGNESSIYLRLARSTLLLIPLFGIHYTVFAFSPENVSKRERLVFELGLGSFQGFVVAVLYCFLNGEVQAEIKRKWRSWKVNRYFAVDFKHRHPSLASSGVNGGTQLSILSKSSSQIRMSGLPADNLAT

[4] = Rat serum stability (activity remaining, CHO-VPAC2 DiscoveRx read-out); format: in vitro ADME
Method: The rat serum is stored at 4° C. until use and is used within two weeks. […] The aliquot is stored with aprotinin at 4° C. The aliquot is stored without aprotinin at 37° C. The aliquots are incubated overnight. […] The plate(s) are washed with cells twice in incubation buffer. The plates are allowed to hold 50 μL incubation media per well for 15 minutes. 50 μL solution per well is transferred to the cells from the plate prepared with 11 serial 5× dilutions of peptide for the 4° C. and 37° C. aliquot for each peptide studied, using the maximal concentrations that are indicated by the primary screen, in duplicate. This step dilutes the peptide concentration by a factor of two. The cells are incubated at room temperature for 30 minutes. […] The cells are incubated on the shaker (300 rpm) for 1 hour. Normal procedure with the DiscoveRx kit is followed. cAMP standards are included in column 12. EC50 values are determined from the cAMP assay data.

| Compound | EC50 [1] [nM] | IC50 [2] [nM] | IC50 [3] [nM] | Rat Serum Stability (estimated purity in % after overnight incub.) [4] [%] |
| --- | --- | --- | --- | --- |
| CCCCCC(=O)N[C@@H](Cc1c[nH]cn1)C(=O)N[C@@H](CO)C(=O)N[C@@H](CC(=O)O)C(=O)N[C@@H](C)C(=O)N[C@H](C(=O)N[C@@H](Cc1ccccc1)C(=O)N[C@H](C(=O)N[C@@H](CC(=O)O)C(=O)N[C@@H](CC(N)=O)C(=O)N[C@@H](Cc1ccc(O)cc1)C(=O)N[C@H](C(=O)N[C@@H](CCCNC(=N)N)C(=O)N[C@@H](CC(C)C)C(=O)N[C@@H](CCCNC(=N)N)C(=O)NC(C)(C)C(=O)N[C@@H](CCC(N)=O)C(=O)N[C@H](C(=O)N[C@@H](C)C(=O)N[C@@H](C)C(=O)NC(C)(C)C(=O)N[C@@H](CCCCN)C(=O)N[C@@H](Cc1ccc(O)cc1)C(=O)N[C@@H](CC(C)C)C(=O)N[C@@H](CCC(N)=O)C(=O)N[C@@H](CO)C(=O)N[C@H](C(=O)N[C@@H](CCCCN)C(=O)NC(C)(C)C(=O)N[C@@H](CCCN)C(=O)NCC(=O)NCC(=O)N1CCC[C@H]1C(=O)N[C@@H](CO)C(=O)N[C@@H](CO)C(=O)NCC(=O)N[C@@H](C)C(=O)N1CCC[C@H]1C(=O)N1CCC[C@H]1C(=O)N1CCC[C@H]1C(=O)N[C@@H](CO)C(=O)O)[C@@H](C)CC)C(C)C)[C@@H](C)O)[C@@H](C)O)C(C)C [Agonist P357] | 0.23 | > 3000 | > 25000 | 38.83 |
| CCCCCC(=O)N[C@@H](Cc1c[nH]cn1)C(=O)N[C@@H](CO)C(=O)N[C@@H](CC(=O)O)C(=O)N[C@@H](C)C(=O)N[C@H](C(=O)N[C@@H](Cc1ccccc1)C(=O)N[C@H](C(=O)N[C@@H](CC(=O)O)C(=O)N[C@@H](CC(N)=O)C(=O)N[C@@H](Cc1ccc(O)cc1)C(=O)N[C@H](C(=O)N[C@@H](CCCN)C(=O)N[C@@H](CC(C)C)C(=O)N[C@@H](CCCNC(=N)N)C(=O)NC(C)(C)C(=O)N[C@@H](CCC(N)=O)C(=O)N[C@H](C(=O)N[C@@H](C)C(=O)N[C@@H](C)C(=O)NC(C)(C)C(=O)N[C@@H](CO)C(=O)N[C@@H](Cc1ccc(O)cc1)C(=O)N[C@@H](CC(C)C)C(=O)N[C@@H](CCC(N)=O)C(=O)N[C@@H](CO)C(=O)N[C@H](C(=O)N[C@@H](CCCN)C(=O)N[C@@H](CC(N)=O)C(=O)N[C@@H](CCCN)C(=O)NCC(=O)NCC(=O)N1CCC[C@H]1C(=O)N[C@@H](CO)C(=O)N[C@@H](CO)C(=O)NCC(=O)N[C@@H](C)C(=O)N1CCC[C@H]1C(=O)N1CCC[C@H]1C(=O)N1CCC[C@H]1C(=O)N[C@@H](CO)C(=O)O)[C@@H](C)CC)C(C)C)[C@@H](C)O)[C@@H](C)O)C(C)C [Agonist P386] (Hexanoyl-HSDAVFTDNYT[Orn]LR[Aib]QVAA[Aib]SYLQSI[Orn]N[Orn]GGPSSGAPPPS-OH; C-terminus assumed) | 0.65 | > 3000 | > 25000 | 71.47 |
| CCCCCC(=O)N[C@@H](Cc1c[nH]cn1)C(=O)N[C@@H](CO)C(=O)N[C@@H](CC(=O)O)C(=O)N[C@@H](C)C(=O)N[C@H](C(=O)N[C@@H](Cc1ccccc1)C(=O)N[C@H](C(=O)N[C@@H](CC(=O)O)C(=O)N[C@@H](CC(N)=O)C(=O)N[C@@H](Cc1ccc(O)cc1)C(=O)N[C@H](C(=O)N[C@@H](CCCN)C(=O)N[C@@H](CO)C(=O)N[C@@H](CCCNC(=N)N)C(=O)NC(C)(C)C(=O)N[C@@H](CCC(N)=O)C(=O)N[C@H](C(=O)N[C@@H](C)C(=O)N[C@@H](C)C(=O)NC(C)(C)C(=O)N[C@@H](CCCCN)C(=O)N[C@@H](Cc1ccc(O)cc1)C(=O)N[C@@H](CC(C)C)C(=O)N[C@@H](CCC(N)=O)C(=O)N[C@@H](CO)C(=O)N[C@H](C(=O)N[C@@H](CCCN)C(=O)N[C@@H](CC(N)=O)C(=O)N[C@@H](CCCN)C(=O)NCC(=O)NCC(=O)N1CCC[C@H]1C(=O)N[C@@H](CO)C(=O)N[C@@H](CO)C(=O)NCC(=O)N[C@@H](C)C(=O)N1CCC[C@H]1C(=O)N1CCC[C@H]1C(=O)N1CCC[C@H]1C(=O)N[C@@H](CO)C(=O)O)[C@@H](C)CC)C(C)C)[C@@H](C)O)[C@@H](C)O)C(C)C [Agonist P391] (Hexanoyl-HSDAVFTDNYT[Orn]SR[Aib]QVAA[Aib]KYLQSI[Orn]N[Orn]GGPSSGAPPPS-OH; C-terminus assumed) | 0.48 |  | > 25000 |  |
| CCCCCC(=O)N[C@@H](Cc1c[nH]cn1)C(=O)N[C@@H](CO)C(=O)N[C@@H](CC(=O)O)C(=O)N[C@@H](C)C(=O)N[C@H](C(=O)N[C@@H](Cc1ccccc1)C(=O)N[C@H](C(=O)N[C@@H](CC(=O)O)C(=O)N[C@@H](CC(N)=O)C(=O)N[C@@H](Cc1ccc(O)cc1)C(=O)N[C@H](C(=O)N[C@@H](CCCN)C(=O)N[C@@H](CC(C)C)C(=O)N[C@@H](CCCNC(=N)N)C(=O)NC(C)(C)C(=O)N[C@@H](CCC(N)=O)C(=O)N[C@H](C(=O)N[C@@H](C)C(=O)N[C@@H](C)C(=O)NC(C)(C)C(=O)N[C@@H](CCCN)C(=O)N[C@@H](Cc1ccc(O)cc1)C(=O)N[C@@H](CC(C)C)C(=O)N[C@@H](CCC(N)=O)C(=O)N[C@@H](CO)C(=O)N[C@H](C(=O)N[C@@H](CCCN)C(=O)N[C@@H](CCCN)C(=O)NCC(=O)NCC(=O)N1CCC[C@H]1C(=O)N[C@@H](CO)C(=O)N[C@@H](CO)C(=O)NCC(=O)N[C@@H](C)C(=O)N1CCC[C@H]1C(=O)N1CCC[C@H]1C(=O)N1CCC[C@H]1C(=O)N[C@@H](CO)C(=O)O)[C@@H](C)CC)C(C)C)[C@@H](C)O)[C@@H](C)O)C(C)C [Agonist P397] (Hexanoyl-HSDAVFTDNYT[Orn]LR[Aib]QVAA[Aib][Orn]YLQSI[Orn][Orn]GGPSSGAPPPS-OH; C-terminus assumed) | 0.15 | > 3000 | > 25000 | 71.07 |
